Experimental data as given in US20250000834A1, “COMPOSITIONS AND METHODS FOR TARGETING GPCR FOR THE PREVENTION AND TREATMENT OF PAIN” (Duke University, priority 2021, published 2025).

What was measured:
hGPR37L1 [1] = target: T1, hGPR37L1 (Homo sapiens, UniProt O60883); test: cAMP BRET assay in HEK293 cells co-transfected with GPR37L1 and cAMP BRET cDNAs; type: cell-based; conditions: 10 nM
T1 sequence (O60883 26-481): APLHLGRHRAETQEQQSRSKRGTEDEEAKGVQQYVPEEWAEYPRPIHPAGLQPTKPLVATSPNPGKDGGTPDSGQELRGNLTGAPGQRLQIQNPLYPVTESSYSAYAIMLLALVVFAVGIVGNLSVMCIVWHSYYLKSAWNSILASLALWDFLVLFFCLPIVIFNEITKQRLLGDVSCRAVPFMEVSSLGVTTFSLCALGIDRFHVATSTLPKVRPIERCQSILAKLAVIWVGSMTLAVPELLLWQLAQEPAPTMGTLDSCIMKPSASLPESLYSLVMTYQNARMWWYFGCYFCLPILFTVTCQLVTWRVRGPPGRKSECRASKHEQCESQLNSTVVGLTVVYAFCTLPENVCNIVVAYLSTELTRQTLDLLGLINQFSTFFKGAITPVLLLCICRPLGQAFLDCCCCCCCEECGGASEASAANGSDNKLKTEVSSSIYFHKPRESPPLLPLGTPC
Experimental: cAMP BRET assay: To detect cAMP change after GPCR37L1 activation, we transfected a Nano-lantern cAMP plasmid (1 μg) and human GPR37L1-tango plasmid (1 μg) into HEK-293 cells. BRET activity was measured upon the addition of 100 μl/well for a final concentration of 10 μM Coelenterazine (Santa Cruz Biotechnology, Dallas, TX), 10 nM MaR1, DHA or vehicle, and 100 μM forskolin (Enzo Life Sciences (Farmingdale, NY), #BML-CN100). The luminescent activity was measured using an Infinite F200 Pro Illuminometer (Tecan Trading AG, Switzerland). The luminescent activity was normalized to basal signal levels.
Eight different concentrations of compounds ranging from 0.1 nM to 100 nM were tested.

hGPR37L1 [2] = target: T1, hGPR37L1; test: Lipid overlay assay with lysates of hGPR37L1-transfected HEK293 cells; type: binding; set-up: expressed in transfected cells; host or cells: HEK293 Flp-In cells
Experimental: Lipids overlay assay: Lipids membrane coating and protein overlay assay were performed as previously described (S. Dowler, et al., Protein lipid overlay assay. Sci STKE 2002, p 16 (2002)). […] Compound-coated membranes were dried and blocked with 1% BSA. The coated membranes were incubated with lysates obtained from hGPR37L1-transfected HEK293 cells or mouse DRG lysate from WT or Gpr37l1 KO mice for 2 hours, followed by detection using an anti-GRP37L1 antibody (Bioss (Woburn, MA), Rabbit, 1:1000, #bs-15390R) or anti-flag antibody (Cell Signaling Technology (Danvers, MA), Rabbit, 1:1000, #14793). Blots were further incubated with an HRP-conjugated secondary anti-rabbit antibody (Jackson ImmunoResearch Laboratories (West Grove, PA), raised in donkey, 1:5000), developed in ECL solution (Pierce Biotechnology, Waltham, MA), and the signal was visualized from ChemiDoc XRS (Bio-Rad, Hercules, CA). The signal Intensity was quantified by Image J software (NIH).
A lipid overlay assay was conducted to reveal any possible binding of these lipid mediators to GPR37L1. hGPR37L1 was FLAG-tagged and expressed in HEK293 cells after hGPR37L1 cDNA transfection; the expressed protein detectable by anti-FLAG antibody (schematic not shown; see U.S. Prov. No. 63/270,198, FIG. 3A).

hGPR37L1 [3] = target: T1, hGPR37L1; test: Lipid-coated bead pull-down assay with hGPR37L1-expressing cells; type: binding; set-up: expressed in transfected cells; host or cells: HEK293 Flp-In cells; conditions: Western blot
Experimental: Lipid pull-down assay: Isolated membrane proteins were pre-adsorbed to uncoated control agarose beads (Vector Laboratories, Burlingame, CA); the unbound fraction was collected and incubated 24 hrs at 4° C. with lipid-coated agarose beads (S. Bang et al., GPR37 regulates macrophage phagocytosis and resolution of inflammatory pain. J Clin Invest 128, 3568-3582 (2018)). After extensive washing, bound proteins were eluted from the lipid-coated beads, suspended in Laemmli buffer containing 2% SDS (w/v) and 0.3-M β-mercaptoethanol (Sigma-Aldrich, St. Louis, MO), and heated 5 min at 95° C. to dissolve proteins before separation on 4-20% polyacrylamide/SDS gels as outlined above. The lysate proteins were detected by western blot.
Western blot: GPR37L1 proteins were isolated from transfected cells, lipid pull-down beads, and mouse DRG. The cells were placed on ice, washed with ice-cold phosphate-buffered saline (PBS), and harvested with ice-cold RIPA buffer (Sigma-Aldrich, St. Louis, MO) with Protease Inhibitor Cocktail Tablet (pH 7.4) (Roche Diagnostics, Indianapolis, IN). The cell lysates were centrifugated for removing insoluble debris and were calculated by BCA assay for detection of protein level, and the supernatant was mixed with 4× Laemmli buffer (Bio-Rad, Hercules, CA) and boiling. Protein samples were […] on 4-15% gradient SDS-PAGE gel (Bio-Rad, Hercules, CA) and blotted on PVDF membrane (Bio-Rad, Hercules, CA). Ponceau S staining was used for the detection of total proteins. The primary antibody was incubated with PBS+1% BSA at 4° C. overnight. We used the following primary antibodies: anti-GPR37L1 antibody (Bioss (Woburn, MA), Rabbit, 1:1000, #bs-15390R); anti-GAPDH antibody (Proteintech (Rosemont, IL), mouse, 1:2000, #60004); and anti-flag antibody (Cell Signaling Technologies (Danvers, MA), Rabbit, 1:1000, #14793). Blots were further incubated with an […] secondary anti-rabbit antibody (Jackson ImmunoResearch Laboratories (West Grove, PA), donkey, 1:5000), developed in ECL solution (Pierce Biotechnology, Appleton, WI)), and visualized in ChemiDoc XRS (Bio-Rad, Hercules, CA). Protein signal intensity was quantified by Image J software (NIH).
Next, a lipid-coated bead pull-down assay with hGPR37L1-expressing cells was used to confirm whether MaR1 would interact with GPR37L1 protein selectively. […] The right molecule size of GPR37L1 (˜50 kDa) was also validated by the anti-FLAG antibody (data not shown; see U.S. Prov. No. 63/270,198, FIG. 3E).

CC/C=C\C/C=C\C[C@H](O)\C=C/C=C/C=C/[C@H](O)C/C=C\CCC(=O)O [MaR1, Maresin 1]
inhibition of forskolin-induced cAMP production (hGPR37L1 [1]): significantly inhibited
binding signal in lipid overlay assay (hGPR37L1 [2]; cell lysate from control mock transfection): no positive signal
binding signal in lipid overlay assay (hGPR37L1 [2]; lysate of hGPR37L1 (FLAG) transfected HEK293 cells, anti-FLAG detection): specific binding signal
GPR37L1 binding in lipid-coated bead pull-down extracts (hGPR37L1 [3]): Strong GPR37L1 binding
